From patent US20210346354A1, “MACROPINOCYTOSIS IN CANCER” (Memorial Sloan-Kettering Cancer Center, priority 2015, published 2021)
Numbered stars: 1 amine (or outer) side, 2 acyl side, 3 side chain; on linkers, the order of the positions; unused ones are H or OH. Bridge positions count the residues as written; N and C are the ends. Square brackets hold non-standard residues; d marks the D form. Peptide text beside a SMILES is read from it. I, II: the chains in the order shown. Actinocin(9to1) = Cc1c2oc3c(C)ccc(C(=O)[*:1])c3nc-2c(C(=O)[*:2])c(N)c1=O; NMeV = CN[C@H](C(=O)O)C(C)C; Sar = CNCC(=O)O

Key:
K-Ras^G12D MEFs [1] = experiment: Lysosomal degradation of DQ-BSA (fluorescence dequenching) in K-Ras^G12D MEFs; type: cell-based, mouse; details: for torin 1-induced increase in DQ-BSA fluorescence when transcription is blocked: 5 μg/ml actinomycin D or 1 μM triptolide, 30 min pre-treatment, 6 h DQ-BSA
Procedure: For live imaging, medium was supplemented with 0.3 mg/ml DQ Green BSA. 1 h prior to imaging, 50 nM LysoTracker Red and 0.2 μg/ml Hoechst were added. Cells were imaged either immediately after addition of DQ-BSA and torin 1, or after 5-6 h incubation using a Zeiss LSM 5 LIVE.
To characterize how cells derive leucine from extracellular proteins, cellular albumin uptake was investigated using constitutively fluorescent albumin and intracellular albumin proteolysis using a self-quenched albumin that emits fluorescence upon degradation (DQ-BSA) (Reis et al., 1998). […] It was then determined whether lysosomal albumin degradation was required to support growth during leucine starvation. […] Ras GTPases can promote cellular uptake of macromolecules through macropinocytosis (Bar-Sagi and Feramisco, 1986). […] To investigate whether this endocytic pathway contributed to albumin-dependent growth, cells were treated with the Na^+/H^+ exchange inhibitor EIPA, which blocks macropinocytosis but not other endocytic pathways (West et al., 1989).
To distinguish these possibilities, it was first tested whether mTORC1 inhibition increased internalization of extracellular macromolecules. […] It was next examined whether mTORC1 inhibition affected lysosomal degradation of internalized proteins.

mTORC1 = mTORC1 re-activation after 1 h EAA starvation, Western blotting against phosphorylated S6K1; type: cell-based, mouse; details: for albumin-dependent mTORC1 activation: 3% albumin
Procedure: Cells were rinsed with ice-cold PBS and detached from culture plates by incubation with ice-cold trypsin (0.05%). Trypsin was inactivated with ice-cold serum, cells pelleted and rinsed with ice cold PBS. Cells were lysed in ice-cold lysis buffer [50 mM HEPES, pH 7.4, 40 mM […], 2 mM EDTA, 1 mM Na Orthovandanate, 50 mM NaF, 10 mM Na Pyrophosphate, 10 mM Na Glycerophosphate, 1% Triton X-100, 1×Halt protease and phosphatase inhibitor cocktails (Thermo Scientific)] for 15 min, and soluble lysate fractions isolated by centrifugation at 16,000 g for 10 min. Protein concentrations were determined with the Pierce BCA Protein Assay (Thermo Scientific) and equal amounts of proteins analyzed by SDS gel electrophoresis and Western blotting following standard protocols.
(§1) Cell culture experiments were performed at 37° C. and 5% CO2 in DMEM/F12 with 10% dialyzed FBS (molecular weight cut-off 10,000; Gemini Biosystems), 100 U/mL penicillin, 100 μg/mL streptomycin, 5 mM glucose and 2 mM glutamine. For proliferation assays, MEFs were plated in complete medium, 5 h later briefly rinsed and then cultured in starvation medium as indicated. For EAA titration experiments, EAAs were supplemented at indicated percentages of 1×MEM amino acid solution (M5550, Sigma). Cancer cell lines were cultured in complete medium for 1 day prior to starvation. Numbers of adherent cells, which are >95% viable as assessed by Trypan Blue exclusion were determined using a Multisizer 4 Coulter Counter (Beckman). For mTOR activation and localization experiments, cells were rinsed and then incubated in EAA starvation medium (DMEM/F12 lacking all amino acids except glutamine) for 1 h, and subsequently placed in medium supplemented with EAAs (1×MEM amino acid solution), albumin (3%, if not stated otherwise) or fresh EAA-free starvation medium for indicated periods of time.
Cells can sense EAAs through the mTORC1 pathway, which integrates amino acid levels with inputs from growth factor signaling to promote cell growth (Ma and Blenis, 2009; Shimobayashi and Hall, 2014). When cells are placed in EAA-free medium, the ability of mTORC1 to phosphorylate downstream targets is repressed. To test if catabolism of extracellularly provided proteins could restore mTORC1 activity in the absence of EAAs, mTORC1 was inactivated by subjecting MEFs to 1 h EAA starvation. Fresh medium containing EAAs or different concentrations of albumin was then added and mTORC1 re-activation assessed by Western blotting against phosphorylated S6K1.

[2] = background statement; cited from earlier work
mTOR = experiment: Lysosomal recruitment of mTOR, immunofluorescence against mTOR and LAMP2; type: cell-based, mouse; details: K-Ras^G12D MEFs
Procedure: For immunostainings, cells were rinsed with ice-cold PBS, fixed with 4% formaldehyde in PBS for 15 min and permeabilized with 0.05% Triton X-100 in PBS. After rinsing with PBS, cells were blocked with PBG (0.5% BSA, 0.2% cold water fish gelatin in PBS) for 30 min, incubated with primary antibodies in PBG for 1.5 h, washed two times with PBG+4% normal goat serum and then incubated with secondary antibodies in PBG+4% NGS for 45 min. After three washes with PBS, cells were mounted on microscope slides with Prolong Antifade+DAPI and imaged using a Leica TCS SP5-II.
as §1, with “For mTOR activation and localization experiments, cells were rinsed and then incubated in EAA starvation medium (DMEM/F12 lacking all amino acids except glutamine) for 1 h, and subsequently placed in medium supplemented with EAAs (1×MEM amino acid solution), albumin (3%, if not stated otherwise) or fresh EAA-free starvation medium for indicated periods of time.” left out

K-Ras^G12D MEFs [3] = experiment: Proliferation assay (cell numbers) of K-Ras^G12D MEFs in starvation medium; type: cell-based, mouse
Procedure: as §1

wild type MEFs = experiment: Proliferation assay (cell numbers) of wild type MEFs in starvation medium; type: cell-based, mouse
Procedure: as §1

[4] = system: wild type and heterozygous K-Ras^G12D MEFs; experiment: Cell numbers of wild type and K-Ras^G12D MEFs in medium lacking nutrients ±3% albumin; type: cell-based, mouse; details: for cell viability: 3% albumin supplementation
Procedure: The dashed line indicates starting cell numbers. # below detection limit. *p<0.05, ** p<0.01, ***p<0.001. […] Data are represented as mean±STDEV (n=3).
as §1
To investigate whether activation of K-Ras signaling altered a cell's ability to metabolize extracellular proteins, we compared immortalized mouse embryonic fibroblasts (MEFs) harboring wild type K-Ras or a constitutively active K-Ras^G12D allele. Albumin is the major protein in plasma and interstitial fluids, its levels ranging from 2-5%. To mimic the protein-rich composition of extracellular fluids, culture medium was therefore supplemented with 10% dialyzed fetal bovine serum ±3% albumin.

[5] = K-Ras^G12D MEFs, inhibitor added at onset of starvation
[6] = EAAs at 5% of the levels in complete medium, 3% albumin
[7] = 3% albumin after 1 h EAA starvation

Compound: CC(C)[C@]12O[C@H]1[C@@H]1O[C@]13[C@]1(O[C@H]1C[C@H]1C4=C(CC[C@@]13C)C(=O)OC4)[C@@H]2O [triptolide]
- torin 1-induced increase in DQ-BSA fluorescence when transcription is blocked (K-Ras^G12D MEFs [1]): unaffected

Compound: C/C1=C\[C@H](C)C[C@H](C)OC(=O)C[C@H](c2ccc(O)cc2)NC(=O)[C@@H](Cc2c(Br)[nH]c3ccccc23)N(C)C(=O)[C@H](C)NC(=O)[C@@H](C)C1 [jasplakinolide]
- albumin-dependent mTORC1 activation (mTORC1; [5]): strongly reduced

Compound: CO[C@H]1C[C@@H]2CC[C@@H](C)[C@@](O)(O2)C(=O)C(=O)N2CCCC[C@H]2C(=O)O[C@H]([C@H](C)C[C@@H]2CC[C@@H](O)[C@H](OC)C2)CC(=O)[C@H](C)/C=C(\C)[C@@H](O)[C@@H](OC)C(=O)[C@H](C)C[C@H](C)/C=C/C=C/C=C/1C [rapamycin]
- stability [2]: not very stable

Compound: CO/C1=C\C(C)=C\[C@@H](C)[C@@H](O)[C@@H](C)C/C(C)=C/C=C/[C@H](OC)[C@@H]([C@@H](C)[C@@H](O)[C@H](C)[C@@]2(O)C[C@@H](O)[C@H](C)[C@@H](C(C)C)O2)OC1=O [bafilomycin A1]
- albumin-dependent mTORC1 activation (mTORC1; [5]): strongly suppressed
- mTORC1 activation by EAAs (mTORC1; [5]): did not perturb
- movement of mTOR to lysosomal membranes in response to albumin (mTOR; 200 nM bafilomycin A1 added at onset of EAA starvation): completely blocked

Compound: Cc1c2oc3c(C)ccc(C(=O)N[C@@H]4C(=O)N[C@H](C(C)C)C(=O)N5CCC[C@H]5C(=O)N(C)CC(=O)N(C)[C@@H](C(C)C)C(=O)O[C@@H]4C)c3nc-2c(C(=O)N[C@@H]2C(=O)N[C@H](C(C)C)C(=O)N3CCC[C@H]3C(=O)N(C)CC(=O)N(C)[C@@H](C(C)C)C(=O)O[C@@H]2C)c(N)c1=O [actinomycin D] (I: T[dV]P[Sar][NMeV] / II: T[dV]P[Sar][NMeV]; ester I:1-I:C, II:1-II:C; linker I:N-II:N via Actinocin(9to1))
- torin 1-induced increase in DQ-BSA fluorescence when transcription is blocked (K-Ras^G12D MEFs [1]): unaffected

Compound: albumin: bovine serum albumin (A1470, Sigma) added to medium as extracellular protein nutrient
- cell proliferation (K-Ras^G12D MEFs [3]; [6]): significant increase in proliferation
- cell proliferation (K-Ras^G12D MEFs [3]; leucine-free medium containing 3% albumin, several consecutive days): able to sustain proliferation
- albumin concentration at which proliferation could be sustained (K-Ras^G12D MEFs [3]; low-EAA medium (5% EAAs)): at least 1%
- proliferation rate (K-Ras^G12D MEFs [3]; low-EAA medium, albumin concentration raised to 3%): increased progressively
- cell numbers (K-Ras^G12D MEFs [3]; medium lacking glutamine, 3% albumin supplementation): increase in cell numbers, albeit to a minor extent
- cell viability (K-Ras^G12D MEFs [3]; medium lacking isoleucine, lysine, or arginine, physiological levels of albumin (3%)): rescued cell viability
- survival and proliferation (wild type MEFs; [6]): improved survival of wild type MEFs, but did not support their proliferation
- cell viability (wild type MEFs; low-EAA medium, increasing albumin levels (1-3%)): improved viability
- time after which mTORC1-dependent phosphorylation resumed (mTORC1; [7]): 2 h
- time to maximal levels of mTORC1-dependent phosphorylation (mTORC1; [7]): 4 h
- S6K1 phosphorylation (mTORC1; wild type and K-Ras^G12D MEFs, EAA-free medium with 1-3% albumin): concentration-dependent increase in S6K1 phosphorylation
- subcellular localization of mTOR (mTOR; 1 h EAA starvation, then 3% albumin): localized to punctate structures that were marked by the lysosomal membrane protein LAMP2
- cell proliferation ([4]; glucose-free medium ±3% albumin): ceased to proliferate, regardless of the presence of 3% albumin
- cell survival ([4]; medium lacking all essential amino acids (EAAs), 3% albumin): striking rescue of cell survival
- cell viability ([4]; non-essential amino acid (NEAA) starvation): modestly improved viability
- cell viability ([4]; starved for leucine): completely restored

Compound: CCN(c1nc(N)c(C(=O)NC(=N)N)nc1Cl)C(C)C [EIPA]
- cell proliferation (K-Ras^G12D MEFs [3]; EIPA treatment with free leucine added to culture medium): restored
- cell proliferation (K-Ras^G12D MEFs [3]; leucine-free medium +3% albumin, 25 μM EIPA, day 3): strongly decreased
- albumin-dependent mTORC1 activation (mTORC1; [5]): strongly reduced

Compound: CCN(CC)CCCC(C)Nc1ccnc2cc(Cl)ccc12 (centres unmarked) [chloroquine]
- DQ-BSA degradation in torin 1-treated cells (K-Ras^G12D MEFs [1]; 250 nM torin 1 plus 20 μM chloroquine or protease inhibitors, 6 h): abrogated DQ-BSA degradation

Compound: C=C1[C@@H](C)[C@H]2[C@H](Cc3ccccc3)NC(=O)[C@]23[C@H](OC(C)=O)/C=C/[C@@](C)(O)C(=O)[C@@H](C)C/C=C/[C@H]3[C@@H]1O [cytochalasin D]
- albumin-dependent mTORC1 activation (mTORC1; [5]): strongly reduced

Compound: Oc1ccc2ccccc2c1SSc1c(O)ccc2ccccc12 [IPA-3]
- albumin-dependent mTORC1 activation (mTORC1; [5]): strongly reduced
